# Positions of bridges follow the written chain, without caps; N, C: chain ends. Non-standard residues stand in square brackets, D forms with d. Residues, ends and D or L forms follow the SMILES beside them. Tyr(3-Cl) = N[C@@H](Cc1ccc(O)c(Cl)c1)C(=O)O
# Molecular target: T1, HTRA1^FL (Homo sapiens, UniProt Q92743)
# T1 construct: Human full-length HTRA1 (HTRA1^FL, Q23-P480); made in house; host or cells: Trichoplusia ni cells
# Experiment: HTRA1^FL enzyme inhibition assay with synthetic substrate H2-OPT
# Type: biochemical
# Method: Assays with the fluorescence-quenched synthetic substrate Mca-IRRVSYSFK(Dnp)K (H2-OPT)[38],[60] were carried out essentially as described. CKP stock solutions in DMSO were diluted in TNC buffer (dilution series for IC50 determinations, or final concentration of 2 µM for selectivity assay or as indicated for HTRA1/4 mutants) and incubated with enzymes in 96-well black optical bottom plates for 60 min at 37 °C. For selectivity experiments we used the 7mer-ABP as inhibitor, which was incubated with the proteases for 15 min at 37 °C. A 10 mM stock solution of H2-OPT in DMSO was diluted with water, prewarmed at 37 °C and then added to the CKP-enzyme mixtures. The final concentrations in the reaction mixtures were: 1 nM HTRA1^FL, 3 nM HTRA1^PD/PDZ, 1 nM HTRA1^PD, 1 nM HTRA2^PD/PDZ, 3 nM HTRA3^FL, 60 nM HTRA3^PD/PDZ, 6 nM HTRA4^FL, 1 µM HTRA4^PD/PDZ, 1 nM mouse HTRA1^PD, 25 nM HTRA1^PD-A202Y, 1 µM HTRA4^PD/PDZ-Y200A, 0.5 mM 7mer-ABP, 5 µM H2-OPT, and 0.25% DMSO. The kinetics of substrate cleavage was measured at 37 °C on a SpectraMax M5 microplate reader with excitation of 328 nm and emission of 393 nm. The determined initial rates of cleavage were expressed as percent of control (DMSO control) after subtracting the baseline rates (without enzyme). IC50 values were determined by Sigmoidal 4PL modeling of multiple data points from serial dilutions of CKPs using Prism 9 software (GraphPad). For selectivity assays with HTRA1-4^PD/PDZ constructs, the specific activities of the enzymes and enzyme:CKP inhibitor ratios were as follows: HTRA1^PD/PDZ, 12560 mRFU/min/nM – 1:667; HTRA2^PD/PDZ, 32300 mRFU/min/nM – 1:2000; HTRA3^PD/PDZ, 962 mRFU/min/nM – 1:33; HTRA4^PD/PDZ, 18 mRFU/min/nM – 1:2.
# T1 sequence (Q92743 23-480): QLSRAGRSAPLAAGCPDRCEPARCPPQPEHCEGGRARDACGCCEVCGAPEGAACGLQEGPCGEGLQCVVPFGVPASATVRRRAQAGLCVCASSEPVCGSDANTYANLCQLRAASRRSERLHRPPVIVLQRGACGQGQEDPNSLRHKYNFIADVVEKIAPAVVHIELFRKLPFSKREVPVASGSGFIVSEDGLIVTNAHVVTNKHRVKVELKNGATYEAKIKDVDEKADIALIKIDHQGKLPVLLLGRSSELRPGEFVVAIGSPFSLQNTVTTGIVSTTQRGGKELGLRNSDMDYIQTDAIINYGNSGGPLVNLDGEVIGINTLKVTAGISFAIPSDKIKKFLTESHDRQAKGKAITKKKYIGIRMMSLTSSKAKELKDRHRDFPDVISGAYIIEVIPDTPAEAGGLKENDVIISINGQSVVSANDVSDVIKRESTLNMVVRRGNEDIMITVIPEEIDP
row,SMILES,IC50 [nM]
1,"CC[C@H](C)[C@H](NC(=O)[C@H](CCC(N)=O)NC(=O)[C@H](CCCNC(=N)N)NC(=O)[C@H](CC(C)C)NC(=O)CNC(=O)[C@H](Cc1c[nH]c2ccccc12)NC(=O)CNC(=O)[C@@H]1CSSC[C@@H]2NC(=O)[C@H](CC(=O)O)NC(=O)[C@H](CC(=O)O)NC(=O)[C@H](Cc3c[nH]cn3)NC(=O)[C@H]([C@@H](C)O)NC(=O)[C@H](CCCCN)NC(=O)[C@@H]3CSSC[C@H](NC(=O)[C@H]([C@@H](C)O)NC(=O)[C@H](CCC(N)=O)NC(=O)[C@H](CSSC[C@H](NC(=O)[C@@H](NC(=O)[C@@H]4CCCN4C(=O)[C@H](CC(=O)O)NC(=O)[C@H](C)NC(=O)[C@@H](N)Cc4c[nH]cn4)[C@@H](C)CC)C(=O)N[C@@H](CC(N)=O)C(=O)N[C@@H](CCCCN)C(=O)N4CCC[C@H]4C(=O)N3)NC(=O)[C@H](Cc3ccccc3)NC(=O)[C@H](Cc3c[nH]c4ccccc34)NC(=O)[C@H](C)NC(=O)CNC(=O)[C@H](CO)NC2=O)C(=O)N[C@@H](Cc2ccc(O)cc2)C(=O)N[C@@H](Cc2ccc(O)cc2)C(=O)N[C@@H](C)C(=O)N[C@@H](CO)C(=O)N[C@@H](Cc2c[nH]c3ccccc23)C(=O)N[C@@H](CO)C(=O)N1)C(=O)N[C@@H](CC(=O)O)C(N)=O [1A8.L5.2] (H-HADPICNKPCKTHDDCSGAWFCQTCYYASWSCGWGLRQID-NH2; disulfide 6-22, 10-25, 16-32)",2 ± 0.2
2,"CC[C@H](C)[C@H](NC(=O)[C@H](CCC(N)=O)NC(=O)[C@H](CCCNC(=N)N)NC(=O)[C@H](CC(C)C)NC(=O)CNC(=O)[C@H](Cc1c[nH]c2ccccc12)NC(=O)CNC(=O)[C@@H]1CSSC[C@@H]2NC(=O)[C@H](CC(=O)O)NC(=O)[C@H](CC(=O)O)NC(=O)[C@H](Cc3c[nH]cn3)NC(=O)[C@H]([C@@H](C)O)NC(=O)[C@H](CCCCN)NC(=O)[C@@H]3CSSC[C@H](NC(=O)[C@H]([C@@H](C)O)NC(=O)[C@H](CCC(N)=O)NC(=O)[C@H](CSSC[C@H](NC(=O)[C@@H](NC(=O)[C@@H]4CCCN4C(=O)[C@H](CC(=O)O)NC(=O)[C@H](C)NC(=O)[C@@H](N)Cc4c[nH]cn4)[C@@H](C)CC)C(=O)N[C@@H](CC(N)=O)C(=O)N[C@@H](CCCCN)C(=O)N4CCC[C@H]4C(=O)N3)NC(=O)[C@H](Cc3ccccc3)NC(=O)[C@H](Cc3c[nH]c4ccccc34)NC(=O)[C@H](C)NC(=O)CNC(=O)[C@H](CO)NC2=O)C(=O)N[C@@H](Cc2ccc(O)cc2)C(=O)N[C@@H](Cc2ccc(O)cc2)C(=O)N[C@@H](C)C(=O)N[C@@H](CC(N)=O)C(=O)N[C@@H](Cc2c[nH]c3ccccc23)C(=O)N[C@@H](CO)C(=O)N1)C(=O)N[C@@H](CC(=O)O)C(N)=O [1A8.L5.1] (H-HADPICNKPCKTHDDCSGAWFCQTCYYANWSCGWGLRQID-NH2; disulfide 6-22, 10-25, 16-32)",1 ± 0.1
3,"CC[C@H](C)[C@H](NC(=O)[C@H](CCC(N)=O)NC(=O)[C@H](CCCNC(=N)N)NC(=O)[C@H](CC(C)C)NC(=O)CNC(=O)[C@H](Cc1c[nH]c2ccccc12)NC(=O)CNC(=O)[C@@H]1CSSC[C@@H]2NC(=O)[C@H](CC(=O)O)NC(=O)[C@H](CC(=O)O)NC(=O)[C@H](Cc3c[nH]cn3)NC(=O)[C@H]([C@@H](C)O)NC(=O)[C@H](CC(=O)O)NC(=O)[C@@H]3CSSC[C@H](NC(=O)[C@H]([C@@H](C)O)NC(=O)[C@H](CCC(N)=O)NC(=O)[C@H](CSSC[C@H](NC(=O)[C@@H](NC(=O)[C@@H]4CCCN4C(=O)[C@H](CC(=O)O)NC(=O)[C@H](C)NC(=O)[C@@H](N)Cc4c[nH]cn4)[C@@H](C)CC)C(=O)N[C@@H](CC(N)=O)C(=O)N[C@@H](CCCCN)C(=O)N4CCC[C@H]4C(=O)N3)NC(=O)[C@H](Cc3ccccc3)NC(=O)[C@H](Cc3c[nH]c4ccccc34)NC(=O)[C@H](C)NC(=O)CNC(=O)[C@H](CO)NC2=O)C(=O)N[C@@H](Cc2ccc(O)cc2)C(=O)N[C@@H](Cc2ccc(O)cc2)C(=O)N[C@@H](C)C(=O)N[C@@H]([C@@H](C)O)C(=O)N[C@@H](Cc2c[nH]c3ccccc23)C(=O)N[C@@H](CO)C(=O)N1)C(=O)N[C@@H](CC(=O)O)C(N)=O [1A8.K11D] (H-HADPICNKPCDTHDDCSGAWFCQTCYYATWSCGWGLRQID-NH2; disulfide 6-22, 10-25, 16-32)",1.2 ± 0.4
4,"CC[C@H](C)[C@H](NC(=O)[C@H](CCC(N)=O)NC(=O)[C@H](CCCNC(=N)N)NC(=O)[C@H](CC(C)C)NC(=O)CNC(=O)[C@H](Cc1c[nH]c2ccccc12)NC(=O)CNC(=O)[C@@H]1CSSC[C@@H]2NC(=O)[C@H](CC(=O)O)NC(=O)[C@H](CC(=O)O)NC(=O)[C@H](Cc3c[nH]cn3)NC(=O)[C@H]([C@@H](C)O)NC(=O)[C@H](CCC(=O)O)NC(=O)[C@@H]3CSSC[C@H](NC(=O)[C@H]([C@@H](C)O)NC(=O)[C@H](CCC(N)=O)NC(=O)[C@H](CSSC[C@H](NC(=O)[C@@H](NC(=O)[C@@H]4CCCN4C(=O)[C@H](CC(=O)O)NC(=O)[C@H](C)NC(=O)[C@@H](N)Cc4c[nH]cn4)[C@@H](C)CC)C(=O)N[C@@H](CC(N)=O)C(=O)N[C@@H](CCCCN)C(=O)N4CCC[C@H]4C(=O)N3)NC(=O)[C@H](Cc3ccccc3)NC(=O)[C@H](Cc3c[nH]c4ccccc34)NC(=O)[C@H](C)NC(=O)CNC(=O)[C@H](CO)NC2=O)C(=O)N[C@@H](Cc2ccc(O)cc2)C(=O)N[C@@H](Cc2ccc(O)cc2)C(=O)N[C@@H](C)C(=O)N[C@@H]([C@@H](C)O)C(=O)N[C@@H](Cc2c[nH]c3ccccc23)C(=O)N[C@@H](CO)C(=O)N1)C(=O)N[C@@H](CC(=O)O)C(N)=O [1A8.K11E] (H-HADPICNKPCETHDDCSGAWFCQTCYYATWSCGWGLRQID-NH2; disulfide 6-22, 10-25, 16-32)",1 ± 0.3
5,"CC[C@H](C)[C@H](NC(=O)[C@H](CCC(N)=O)NC(=O)[C@H](CCCNC(=N)N)NC(=O)[C@H](CC(C)C)NC(=O)CNC(=O)[C@H](Cc1c[nH]c2ccccc12)NC(=O)CNC(=O)[C@@H]1CSSC[C@@H]2NC(=O)[C@H](CC(=O)O)NC(=O)[C@H](CC(=O)O)NC(=O)[C@H](Cc3c[nH]cn3)NC(=O)[C@H]([C@@H](C)O)NC(=O)[C@H](CCCCN)NC(=O)[C@@H]3CSSC[C@H](NC(=O)[C@H]([C@@H](C)O)NC(=O)[C@H](CCC(N)=O)NC(=O)[C@H](CSSC[C@H](NC(=O)[C@@H](NC(=O)[C@@H]4CCCN4C(=O)[C@H](CC(=O)O)NC(=O)[C@H](C)NC(=O)[C@@H](N)Cc4c[nH]cn4)[C@@H](C)CC)C(=O)N[C@@H](CC(N)=O)C(=O)N[C@@H](CCCCN)C(=O)N4CCC[C@H]4C(=O)N3)NC(=O)[C@H](Cc3ccccc3)NC(=O)[C@H](Cc3c[nH]c4ccccc34)NC(=O)[C@H](C)NC(=O)CNC(=O)[C@H](CO)NC2=O)C(=O)N[C@@H](Cc2ccc(O)c(Cl)c2)C(=O)N[C@@H](Cc2ccc(O)cc2)C(=O)N[C@@H](C)C(=O)N[C@@H]([C@@H](C)O)C(=O)N[C@@H](Cc2c[nH]c3ccccc23)C(=O)N[C@@H](CO)C(=O)N1)C(=O)N[C@@H](CC(=O)O)C(N)=O [1A8.Y26Y(3Cl)] (H-HADPICNKPCKTHDDCSGAWFCQTC[Tyr(3-Cl)]YATWSCGWGLRQID-NH2; disulfide 6-22, 10-25, 16-32)",2.4 ± 0.3
6,"CC[C@H](C)[C@H](NC(=O)[C@H](CCC(N)=O)NC(=O)[C@H](CCCNC(=N)N)NC(=O)[C@H](CC(C)C)NC(=O)CNC(=O)[C@H](Cc1c[nH]c2ccccc12)NC(=O)CNC(=O)[C@@H]1CSSC[C@@H]2NC(=O)[C@H](CC(=O)O)NC(=O)[C@H](CC(=O)O)NC(=O)[C@H](Cc3c[nH]cn3)NC(=O)[C@H]([C@@H](C)O)NC(=O)[C@H](CCCCN)NC(=O)[C@@H]3CSSC[C@H](NC(=O)[C@H]([C@@H](C)O)NC(=O)[C@H](CCC(N)=O)NC(=O)[C@H](CSSC[C@H](NC(=O)[C@@H](NC(=O)[C@@H]4CCCN4C(=O)[C@H](CC(=O)O)NC(=O)[C@H](C)NC(=O)[C@@H](N)Cc4c[nH]cn4)[C@@H](C)CC)C(=O)N[C@@H](CC(N)=O)C(=O)N[C@@H](CCCCN)C(=O)N4CCC[C@H]4C(=O)N3)NC(=O)[C@H](Cc3ccccc3)NC(=O)[C@H](Cc3c[nH]c4ccccc34)NC(=O)[C@H](C)NC(=O)CNC(=O)[C@H](CO)NC2=O)C(=O)N[C@@H](Cc2ccc(O)cc2)C(=O)N[C@@H](CC(C)C)C(=O)N[C@@H](C)C(=O)N[C@@H]([C@@H](C)O)C(=O)N[C@@H](Cc2c[nH]c3ccccc23)C(=O)N[C@@H](CO)C(=O)N1)C(=O)N[C@@H](CC(=O)O)C(N)=O [Y27L] (H-HADPICNKPCKTHDDCSGAWFCQTCYLATWSCGWGLRQID-NH2; disulfide 6-22, 10-25, 16-32)",49.9 ± 3.8

# Source: publication PMC11111691, “Cystine-knot peptide inhibitors of HTRA1 bind to a cryptic pocket within the active site region” (Nature Communications, 2024)
